Laboratory results as given in the supplement of paper PMC11061612.

Key:
Lapatinib = compound: CS(=O)(=O)CCNCc1ccc(-c2ccc3ncnc(Nc4ccc(OCc5cccc(F)c5)c(Cl)c4)c3c2)o1 [Lapatinib]; details: max 10 µM
Method in brief: (§1)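 Plates with 1536 wells received cancer cell lines in 7.5 μl of DMEM/F12 or RPMI containing 10% FBS. After 24 hours at 37°C and 5% CO2, cells were dosed for 72 hours with final DMSO typically 0.2%, and viability was read by CellTiter-Glo 2.0 luminescence scaled between blank-well and DMSO-well means. The single-agent IC50 was taken from a logistic fit of the dose responses made with a non-linear mixed effects model, that logistic curve having two parameters.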

AZD8186 = compound: C[C@@H](Nc1cc(F)cc(F)c1)c1cc(C(=O)N(C)C)cc2c(=O)cc(N3CCOCC3)oc12 [AZD8186]; details: max 3 µM
Method in brief: as §1

AZD4320 = compound: CN(CC[C@H](CSC1=CC=CC=C1)NC2=C(C=C(C=C2)S(=O)(=O)NC(=O)C3=CC=C(C=C3)N4CCC(CC4)[C@H](C5=CC=CC=C5C6=CC=C(C=C6)Cl)O)S(=O)(=O)C(F)(F)F)CCO [AZD4320]; details: max 1 µM
Method in brief: as §1

Olaparib = compound: O=C(c1cc(Cc2n[nH]c(=O)c3ccccc23)ccc1F)N1CCN(C(=O)C2CC2)CC1 [Olaparib]; details: max 10 µM
Method in brief: as §1

SN-38 = compound: CCc1c2c(nc3ccc(O)cc13)-c1cc3c(c(=O)n1C2)COC(=O)[C@]3(O)CC [SN-38]; details: max 0.3 µM
Method in brief: as §1

SG3199 = compound: CC1=CN2[C@@H](C1)C=NC3=CC(=C(C=C3C2=O)OC)OCCCCCOC4=C(C=C5C(=C4)N=C[C@@H]6CC(=CN6C5=O)C)OC [SG3199]; details: max 0.001 µM
Method in brief: as §1

Taselisib = compound: Cc1nc(-c2cn3c(n2)-c2ccc(-c4cnn(C(C)(C)C(N)=O)c4)cc2OCC3)n(C(C)C)n1 [Taselisib]; details: max 10 µM
Method in brief: as §1

Trametinib = compound: CC(=O)Nc1cccc(-n2c(=O)n(C3CC3)c(=O)c3c(Nc4ccc(I)cc4F)n(C)c(=O)c(C)c32)c1 [Trametinib]; details: max 1 µM
Method in brief: as §1

Capivasertib = compound: C1CN(CCC1(C(=O)N[C@@H](CCO)C2=CC=C(C=C2)Cl)N)C3=NC=NC4=C3C=CN4 [Capivasertib]; details: max 10 µM
Method in brief: as §1

Savolitinib = compound: C[C@@H](c1ccc2nccn2c1)n1nnc2ncc(-c3cnn(C)c3)nc21 [Savolitinib]; details: max 1 µM
Method in brief: as §1

Gefitinib = compound: COc1cc2ncnc(Nc3ccc(F)c(Cl)c3)c2cc1OCCCN1CCOCC1 [Gefitinib]; details: max 10 µM
Method in brief: as §1

Selumetinib = compound: Cn1cnc2c(F)c(Nc3ccc(Br)cc3Cl)c(C(=O)NOCCO)cc21 [Selumetinib]; details: max 10 µM
Method in brief: as §1

AZD0156 = compound: CN(C)CCCOc1ccc(-c2ccc3ncc4c(c3c2)n(C2CCOCC2)c(=O)n4C)cn1 [AZD0156]; details: max 3 µM
Method in brief: as §1

Doxorubicin = compound: COc1cccc2c1C(=O)c1c(O)c3c(c(O)c1C2=O)C[C@@](O)(C(=O)CO)C[C@@H]3O[C@H]1C[C@H](N)[C@H](O)[C@H](C)O1 [Doxorubicin]; details: max 1 µM
Method in brief: as §1

Dasatinib = compound: CC1=C(C(=CC=C1)Cl)NC(=O)C2=CN=C(S2)NC3=CC(=NC(=N3)C)N4CCN(CC4)CCO [Dasatinib]; details: max 2 µM
Method in brief: as §1

AZD1390 = compound: CC(C)n1c(=O)n(C)c2cnc3cc(F)c(-c4ccc(OCCCN5CCCCC5)nc4)cc3c21 [AZD1390]; details: max 0.3 µM
Method in brief: as §1

Palbociclib = compound: CC(=O)c1c(C)c2cnc(Nc3ccc(N4CCNCC4)cn3)nc2n(C2CCCC2)c1=O [Palbociclib]; details: max 10 µM
Method in brief: as §1

Prexasertib = compound: COc1cccc(OCCCN)c1-c1cc(Nc2cnc(C#N)cn2)n[nH]1 [Prexasertib]; details: max 1 µM
Method in brief: as §1

Crizotinib = compound: C[C@@H](Oc1cc(-c2cnn(C3CCNCC3)c2)cnc1N)c1c(Cl)ccc(F)c1Cl [Crizotinib]; details: max 10 µM
Method in brief: as §1

Venetoclax = compound: CC1(C)CCC(CN2CCN(c3ccc(C(=O)NS(=O)(=O)c4ccc(NCC5CCOCC5)c([N+](=O)[O-])c4)c(Oc4cnc5[nH]ccc5c4)c3)CC2)=C(c2ccc(Cl)cc2)C1 [Venetoclax]; details: max 1 µM
Method in brief: as §1

AZD2811 = compound: CCN(CCO)CCCOc1ccc2c(Nc3cc(CC(=O)Nc4cccc(F)c4)[nH]n3)ncnc2c1 [AZD2811]; details: max 1 µM
Method in brief: as §1

AZD6738 = compound: C[C@@H]1COCCN1C2=NC(=NC(=C2)C3(CC3)[S@](=N)(=O)C)C4=C5C=CNC5=NC=C4 [AZD6738]; details: max 10 µM
Method in brief: as §1

AZD5991 = compound: Cc1c2c(nn1C)CSCc1cc(n(C)n1)CSc1cc(c3ccccc3c1)OCCCc1c(C(=O)O)n(C)c3c-2c(Cl)ccc13 [AZD5991]; details: max 1 µM
Method in brief: as §1

MK-2206 = compound: NC1(c2ccc(-c3nc4ccn5c(=O)[nH]nc5c4cc3-c3ccccc3)cc2)CCC1 [MK-2206]; details: max 10 µM
Method in brief: as §1

AZD1775 = compound: C=CCn1c(=O)c2cnc(Nc3ccc(N4CCN(C)CC4)cc3)nc2n1-c1cccc(C(C)(C)O)n1 [AZD1775]; details: max 3 µM
Method in brief: as §1

AZD5153 = compound: COc1nnc2ccc(N3CCC(c4ccc(OCCN5CCN(C)C(=O)[C@H]5C)cc4)CC3)nn12 [AZD5153]; details: max 1 µM
Method in brief: as §1

Alisertib = compound: COc1cc(Nc2ncc3c(n2)-c2ccc(Cl)cc2C(c2c(F)cccc2OC)=NC3)ccc1C(=O)O [Alisertib]; details: max 10 µM
Method in brief: as §1

AZD7648 = compound: Cc1cc2ncnn2cc1Nc1ncc2c(n1)n(C1CCOCC1)c(=O)n2C [AZD7648]; details: max 10 µM
Method in brief: as §1

Cell Line | IC50, cell viability 72 h (Lapatinib) [µM] | IC50, cell viability 72 h (AZD8186) [µM] | IC50, cell viability 72 h (AZD4320) [µM] | IC50, cell viability 72 h (Olaparib) [µM] | IC50, cell viability 72 h (SN-38) [µM] | IC50, cell viability 72 h (SG3199) [µM] | IC50, cell viability 72 h (Taselisib) [µM] | IC50, cell viability 72 h (Trametinib) [µM] | IC50, cell viability 72 h (Capivasertib) [µM] | IC50, cell viability 72 h (Savolitinib) [µM] | IC50, cell viability 72 h (Gefitinib) [µM] | IC50, cell viability 72 h (Selumetinib) [µM] | IC50, cell viability 72 h (AZD0156) [µM] | IC50, cell viability 72 h (Doxorubicin) [µM] | IC50, cell viability 72 h (Dasatinib) [µM] | IC50, cell viability 72 h (AZD1390) [µM] | IC50, cell viability 72 h (Palbociclib) [µM] | IC50, cell viability 72 h (Prexasertib) [µM] | IC50, cell viability 72 h (Crizotinib) [µM] | IC50, cell viability 72 h (Venetoclax) [µM] | IC50, cell viability 72 h (AZD2811) [µM] | IC50, cell viability 72 h (AZD6738) [µM] | IC50, cell viability 72 h (AZD5991) [µM] | IC50, cell viability 72 h (MK-2206) [µM] | IC50, cell viability 72 h (AZD1775) [µM] | IC50, cell viability 72 h (AZD5153) [µM] | IC50, cell viability 72 h (Alisertib) [µM] | IC50, cell viability 72 h (AZD7648) [µM]
OCI-M1 (Acute Myeloid Leukemia) | > 10 | > 3 | 0.131 | > 10 | 0.0134 | > 0.001 | > 10 | 0.0354 | > 10 | > 1 | > 10 | 1.81 | > 3 | 0.443 | > 2 | > 0.3 | 9.53 | 0.0186 | 1.4 | > 1 | > 1 | 0.657 | > 1 | > 10 | 0.426 | 0.0162 | 0.516 | > 10
RS4-11 (B-Lymphoblastic Leukemia) | > 10 | > 3 | 0.00382 | > 10 | 0.00479 | > 0.001 | 7.52 | > 1 | 9.4 | > 1 | > 10 | > 10 | > 3 | 0.46 | > 2 | > 0.3 | 4.98 | 0.0167 | 1.52 | 0.00579 | 0.00884 | 1.39 | 0.723 | – | 0.268 | 0.191 | 0.0322 | > 10
SBC-5 (Small Cell Lung Carcinoma) | > 10 | > 3 | > 1 | > 10 | 0.0202 | > 0.001 | 4.64 | > 1 | > 10 | > 1 | > 10 | > 10 | > 3 | > 1 | > 2 | > 0.3 | > 10 | 0.0795 | 7.27 | > 1 | > 1 | 5.87 | > 1 | > 10 | 1.14 | 0.507 | 3.25 | > 10
SCC90 (Head and Neck Carcinoma) | 0.882 | > 3 | > 1 | > 10 | > 0.3 | > 0.001 | 1.9 | 0.00716 | 2.3 | > 1 | 0.97 | 0.497 | > 3 | > 1 | > 2 | > 0.3 | > 10 | 0.122 | > 10 | > 1 | > 1 | > 10 | 0.266 | 8.22 | > 3 | > 1 | 7.38 | > 10
SK-N-DZ (Neuroblastoma) | 5.56 | > 3 | 0.628 | > 10 | 0.0247 | > 0.001 | > 10 | > 1 | > 10 | > 1 | > 10 | > 10 | > 3 | 0.748 | > 2 | > 0.3 | 5.33 | 0.0169 | 1.86 | > 1 | > 1 | 2.39 | > 1 | – | 0.278 | 0.294 | 0.256 | > 10
SNU-1 (Gastric Carcinoma) | > 10 | > 3 | > 1 | > 10 | 0.0129 | > 0.001 | 9.03 | 0.757 | > 10 | > 1 | > 10 | > 10 | > 3 | 0.237 | > 2 | > 0.3 | > 10 | 0.0971 | > 10 | > 1 | > 1 | 5.01 | 0.938 | – | 1.35 | 0.265 | > 10 | > 10
SUP-HD1 (Hodgkin's Lymphoma) | > 10 | > 3 | 0.0126 | > 10 | 0.00249 | > 0.001 | 5.27 | > 1 | 7.9 | > 1 | > 10 | > 10 | > 3 | 0.0996 | > 2 | > 0.3 | > 10 | 0.0155 | 6.54 | 0.0156 | 0.995 | 4.04 | 0.516 | – | 1.33 | 0.224 | 5.4 | > 10
TOV-21G (Ovarian Carcinoma) | > 10 | > 3 | > 1 | > 10 | 0.148 | > 0.001 | 6.23 | > 1 | 1.55 | > 1 | > 10 | > 10 | > 3 | > 1 | 0.139 | > 0.3 | > 10 | 0.299 | 9.3 | > 1 | > 1 | 3.65 | > 1 | – | 0.754 | 0.334 | 2.95 | > 10
